Entries after “also recorded” stand apart in the source; their conditions may differ.
Experiments:
[1] = system: drug-dependent anti-platelet antibody (DDAB); test: Depletion and recovery of DDAB from patient 099016 plasma by platelets with Compound A, read in the DDAB ELISA; assay type: binding, human
Description: Thrombocytopenic patient plasma was processed as described in Example 9. After treatment of 099016 plasma with platelets in the presence and in the absence of Compound A, samples were evaluated in the DDAB ELISA (see commonly-owned pending U.S. patent application Ser. No. 09/237061, filed Jan. 26, 1999, the contents of which are herein incorporated by reference) at 3 dilutions (1/100; 1/250 and 1/500) for residual DDAB. Murine JK094 was used as a positive control for the ELISA.
Thrombocytopenic patient 099016 plasma was processed with platelets in the presence or the absence of Compound A to deplete any DDAB as described in Example 9. After treatment of 099016 plasma with platelets in the presence and in the absence of Compound A, samples were evaluated in the DDAB ELISA at 3 dilutions (1/100, 1/250 and 1/500) for residual DDAB. Murine JK094 was used as a positive control for the ELISA.

[2] = system: platelet CD62; test: Depletion of DDPAS from plasma by platelets with Compound A, and EDTA elution, read in the DDPASFCA; assay type: cell-based, human
Description: Thrombocytopenic patient plasma was processed as described in Example 1 and Delta fluorescence is shown (FIG. 3, panel A) as a function of volume percent patient plasma. After treatment of 099016 plasma with platelets in the presence and in the absence of compound A, samples were evaluated in the DDPASFCA at a 1/3 dilution using fresh donor PRP.
Thrombocytopenic patient 099016 plasma was evaluated in the DDPASFCA as in Example 1, with the modification that 10 μL of sample, or a sample of 099016 plasma diluted into DDPASFCA-negative plasma, was combined with 20 μL donor PRP (final platelet concentration=1×10^8/mL). The signal in the DDPASFCA was proportional to the patient plasma dilution. Next, the ability of platelets, a physiologically relevant source of GPIIb/IIIa, to remove certain kinds of DDPASs was tested. DDPAS positive thrombocytopenic plasma 099016 (70 μl) was treated with fresh donor PRP (140 μL, final platelet concentration 3×10^8/mL) for 60 minutes in the presence or the absence of compound A (1 μM). Platelets were removed by centrifugation at 1000×G for 5 minutes, and the resulting plasma samples were tested in the DDPASFCA as in Example 1, with the modification that 3 μL of sample was combined with 27 μL donor PRP (final platelet concentration=1×10^8/mL) in the presence or the absence of Compound A (1 μM). […] The samples were then evaluated in the DDPASFCA.

[3] = system: platelet CD62; test: DDPASFCA in alternative microtiter plates (Costar Serocluster #3897 versus #3898); assay type: cell-based, human; details: Compound A 200 nM
Description: ADP and DPC38 were used as sources of DDPASs. 2 μL of citrated PRP (DPC3) was added to either Costar Serocluster® 96 well V-bottom microtiterplates (#3897) or #3898 microtiter plates (Costar Serocluster®) (rated as “hydrophilic” in nature by the manufacturer). Platelets were then treated with and without Compound A (200 nM) with the indicated concentrations of ADP. Similarly, DDPAS positive PRP (DPC38) was added to wells of both types of plates and treated with and without Compound A (200 nM). Reactions were incubated without shaking for 120 minutes. After this time, 20 μL of phycoerythrin conjugated anti-CD62 (anti-CD62-PE, Bectin Dickinson) was added. After 30 minutes the samples were diluted with 150 μL flow buffer and bound anti-CD62-PE measured as described in Example 1.
Delta SC=Delta Fluorescence for Costar Serocluster microtiter plates
Delta H=Delta Fluorescence for H3898 microtiter plates

[4] = system: platelet CD62; test: Detection of ADP as a GPIIb/IIIa DDPAS by DDPASFCA; assay type: cell-based, human; details: ADP 0 μM
Description: Adenosine diphosphate (ADP) was evaluated as a possible DDPAS as follows: Compound A (final concentration 1 μM) or vehicle was added to 25 μL of freshly prepared PRP in wells of a 96-well microtiter plate. Another set of wells received vehicle. After 10 minutes, 2.5 μL of from each well was transferred to microtiter wells containing only 20 μL of anti-CD62-PE. After incubation for 30 minutes, samples were analyzed by flow cytometry as in Example 1.

[5] = Thrombocytopenia in a patient who received Compound A; assay type: in vivo, human; details: patient #304
Description: The development of DDPASs in the plasma of a patient who received Compound A and developed thrombocytopenia was analyzed using the procedure of Example 1. DDPASFCA was not determined for patient #304 prior to taking Compound A. The patient experienced thrombocytopenia after 3 days of administration of Compound A. DDPASs were subsequently detected in this patient's plasma on day 22 post-administration of Compound A and were also detected 17 months later (FIG. 2). DPC38 was used as a positive control. DPC3 was used as a negative control. […] In a prospective study, a patient with such pre-existing DDPASs could be excluded from the study, possibly preventing the clinically significant thrombocytopenic episode.

[6] = system: platelet CD62; test: Modified DDPASFCA using the donor's own platelets; assay type: cell-based; details: healthy human donor, Compound A 200 nM
Description: The occurrence of DDPASs in the general population was tested by a modification of the DDPASFCA using the donor's own platelets to conduct the assay. PRP (100 μL) from healthy human donors was treated with Compound A (200 nM) or vehicle for 90 minutes. A 5μL sample was transferred to microtiter wells containing 20 μL anti-CD62-PE and samples analyzed by flow cytometry as described in Example 1. Positive samples (defined as Delta PE fluorescence of >0) were retested using the method of Example 1 (heterologous donor). 8% of donors were weakly positive (delta between 10 and 25). […] Thus, the prevalence and titer of pre-existing DDPASs is relatively low in the general population.

[7] = platelet donor DPC38 (DDPAS positive PRP), ADP 0 uM
[8] = platelet donor DPC50 (DDPASFCA negative), ADP 0 uM

Question: With `CCCCOC(=O)N[C@@H](CNC(=O)C[C@H]1CC(c2ccc(C(=N)N)cc2)=NO1)C(=O)O` [Compound A, 2(S)-[(n-butoxycarbonyl)amino]-3-[[[3-[4-(aminoiminomethyl)phenyl]isoxazolin-5(R)-yl]methylcarbonyl]amino]propionic acid] as the molecule, how does the “residual DDAB in plasma after treatment with platelets” value ([1]; patient 099016 plasma, donor platelets, Compound A, dilutions 1/100, 1/250 and 1/500) read?
Answer: specifically depleted the DDAB

Question: What about the “DDAB in EDTA eluants of platelets” value ([1]; platelets treated with 099016 plasma with Compound A) of the same molecule?
Answer: showed DDAB; also recorded: contain a detectable DDAB

Question: And the “residual DDPAS in plasma after treatment with platelets” value ([2]; patient 099016 plasma, donor PRP 60 minutes, Compound A 1 μM)?
Answer: depleted of the DDPAS; also recorded: specifically depleted the DDPAS

Question: What about the “DDPAS in EDTA eluate of platelets” value ([2]; platelets treated with 099016 plasma with Compound A, 9 mM EDTA, 37° C., 2 hours, versus DPC43 and DPC44) of the same molecule?
Answer: substantially positive; also recorded: elevated DDPAS

Question: What about the “Delta CS (Delta Fluorescence for Costar Serocluster microtiter plates)” value (“Delta CS” below) ([3]; platelet donor DPC3, ADP 0 uM) of the same molecule?
Answer: 24

Question: And the “Delta H (Delta Fluorescence for H3898 microtiter plates)” value (“Delta H” below) ([3]; platelet donor DPC3, ADP 0 uM)?
Answer: 28

Question: And the “Delta CS” value [3, 7]?
Answer: 190

Question: What about the “Delta H” value [3, 7] of the same molecule?
Answer: 338

Question: What about the “Delta CS” value [3, 8] of the same molecule?
Answer: 0

Question: What about the “Delta H” value [3, 8] of the same molecule?
Answer: −1

Question: And the “+ compound Med F12” value ([4]; Compound A 1 μM alone)?
Answer: 11

Question: What about the “Delta Med F12” value ([4]; with minus without Compound A 1 μM) of the same molecule?
Answer: −1

Question: And the “time to thrombocytopenia after start of administration” value [5]?
Answer: 3 days

Question: And the “Delta PE fluorescence of the significantly positive sample” value [6]?
Answer: 566

Reference: patent US20020132276A1, “FACS method for detecton of GPIIb/IIIa inhibitor dependent activators in plasma samples” (priority 1999, published 2002)
